# Laboratory results taken from patent US10450549B2, “Aryloxyphenoxypropionate tolerance in turfrgass species and use of AAD1 as a selectable marker” (Dow AgroSciences, LLC, priority 2004, dated 2019).
# Legend:
# [1] = system: AAD1 (v3)-transformed T1 Arabidopsis; assay: T1 Arabidopsis response to postemergence herbicide (2,4-D, dichlorprop, haloxyfop, fluroxypyr), % visual injury 2 WAT: AAD1 (v3) transformants; assay type: in vivo, Arabidopsis thaliana; conditions: AAD1 v3, 2 WAT
# Experimental: Freshly harvested T1 seed (transformed with native [AAD1 (v2)] or plant optimized [AAD1 (v3)] gene) was allowed to dry for 7 days at room temperature. T1 seed was sown in 26.5×51-cm germination trays (T.O. Plastics Inc., Clearwater, Minn.), each receiving a 200 mg aliquots of stratified T1 seed (˜10,000 seed) that had previously been suspended in 40 ml of 0.1% agarose solution and stored at 4° C. for 2 days to complete dormancy requirements and ensure synchronous seed germination.
# Sunshine Mix LP5 (Sun Gro Horticulture Inc., Bellevue, Wash.) was covered with fine vermiculite and subirrigated with Hoagland's solution until wet, then allowed to gravity drain. Each 40 ml aliquot of stratified seed was sown evenly onto the vermiculite with a pipette and covered with humidity domes (KORD Products, Bramalea, Ontario, Canada) for 4-5 days. Domes were removed 1 day prior to initial transformant selection using glufosinate postemergence spray (selecting for the co-transformed PAT gene).
# Five to six days after planting (DAP) and again 10 DAP, T1 plants (cotyledon and 2-4-1f stage, respectively) were sprayed with a 0.2% solution of Liberty herbicide (200 g ai/L glufosinate, Bayer Crop Sciences, Kansas City, Mo.) at a spray volume of 10 ml/tray (703 L/ha) using a DeVilbiss compressed air spray tip to deliver an effective rate of 280 g ai/ha glufosinate per application. Survivors (plants actively growing) were identified 5-7 days after the final spraying and transplanted individually into 3-inch pots prepared with potting media (Metro Mix 360). Transplanted plants were covered with humidity domes for 3-4 days and placed in a 22° C. growth chamber as before. Domes were subsequently removed and plants moved to the greenhouse (22+5° C., 50+30% RH, 14 h light:10 dark, minimum 500 μE/m^2s^1 natural+supplemental light) at least 1 day prior to testing for the ability of AAD1 (v3) (plant optimized gene) or AAD1 (v2) (native microbial gene) to provide phenoxy auxin herbicide resistance.
# (§1) Random individual T1 plants selected for glufosinate resistance above were confirmed for expression of the PAT protein using a PAT ELISA kit (Part no. 7000045, Strategic Diagnostics, Inc., Newark, Del.) to non-destructively confirm fidelity of selection process (manufacturer's protocol). Plants were then randomly assigned to various rates of phenoxy herbicides (dichlorprop or 2,4-D). […] Elevated rates were applied in subsequent trials (50, 200, 800, or 3200 g ae/ha).
# (§2) All auxin herbicide applications were made using the DeVilbiss sprayer as described above to apply 703 L/ha spray volume (0.4 ml solution/3-inch pot) or applied by track sprayer in a 187 L/ha spray volume. […] Dichlorprop used was technical grade (Sigma, St. Louis, Mo.) dissolved in DMSO and diluted in water (<1% DMSO final concentration). As herbicide rates increased beyond 800 g ae/ha, the pH of the spray solution became exceedingly acidic, burning the leaves of young, tender Arabidopsis plants and complicating evaluation of the primary effects of the herbicides. It became standard practice to apply these high rates of phenoxy herbicides in 200 mM Tris buffer (pH 9.0) to a final pH of ˜7-8.
# (§3) Although Arabidopsis, being a dicot, is not an optimal system for testing ACCase-inhibiting AOPP grass herbicides, AAD1 (v3)-transformed T1 plants were subjected to elevated rates (400-1600 g ae/ha) of RS-haloxyfop acid (internally synthesized) that do cause growth abnormalities and death of wildtype Arabidopsis using the DeVilbiss sprayer as described above. Injury ratings were taken 7 and 14 days after treatment. Likewise, T1 individuals were treated with the pyridyloxyacetate auxin herbicide, fluroxypyr.
# Table 16. […] Response is presented in terms of % visual injury 2 WAT. […] Since each T1 is an independent transformation event, one can expect significant variation of individual T1 responses within a given rate. An arithmetic mean and standard deviation is presented for each treatment. […]
# [2] = system: PAT/Cry1F-transformed Arabidopsis; assay: T1 Arabidopsis spray test, % visual injury 2 WAT: PAT/Cry1F transformed control; assay type: in vivo, Arabidopsis thaliana; conditions: PAT/Cry1F
# Text: as §1, §2, §3
# Table 16. […] Response is presented in terms of % visual injury 2 WAT. […] Since each T1 is an independent transformation event, one can expect significant variation of individual T1 responses within a given rate. An arithmetic mean and standard deviation is presented for each treatment. The range in individual response is also indicated in the last column for each rate and transformation. PAT/Cry1F-transformed Arabidopsis served as an auxin-sensitive transformed control. Wildtype Arabidopsis is untransformed.
# (§4) Table 17. T1 Arabidopsis response to a range of dichlroprop rates applied postemergence. Response is presented in terms of % visual injury 2 WAT. […] Since each T1 is an independent transformation event, one can expect significant variation of individual T1 responses within a given rate. An arithmetic mean and standard deviation is presented for each treatment. The range in individual response is also indicated in the last column for each rate and transformation. PAT/Cry1F-transformed Arabidopsis served as an auxin-sensitive transformed control. Wildtype Arabidopsis is untransformed.
# as §4, with “18.” for “17.”, “haloxyfop” for “dichlroprop”, “postemergence at artificially high rates attempting to show tolerance of the dicot Arabidopsis to the graminicide.” for “postemergence.”
# [3] = target: T1, AAD1 (v1) (Sphingobium herbicidovorans, UniProt Q8KSC8); assay: Colorimetric phenol detection assay of AAD1 (v1) activity (purified enzyme or E. coli extract); assay type: biochemical; conditions: 15 min
# T1 construct: made in house; host or cells: E. coli BL-21 Star (DE3), plasmid pDAB3203
# T1 sequence (Q8KSC8 whole entry): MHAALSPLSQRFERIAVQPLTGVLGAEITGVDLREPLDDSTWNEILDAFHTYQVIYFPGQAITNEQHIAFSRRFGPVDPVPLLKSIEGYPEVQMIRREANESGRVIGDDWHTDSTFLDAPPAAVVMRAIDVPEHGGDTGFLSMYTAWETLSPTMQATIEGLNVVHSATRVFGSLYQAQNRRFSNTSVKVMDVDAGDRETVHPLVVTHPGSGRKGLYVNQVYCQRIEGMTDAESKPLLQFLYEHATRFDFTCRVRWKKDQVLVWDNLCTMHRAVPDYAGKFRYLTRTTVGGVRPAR
structure (smiles),measurement,setting,value
"CC(Oc1ccc(Cl)cc1Cl)C(=O)O (racemic) [(R,S)-dichlorprop, 2,4-dichlorophenoxypropionic acid]",% Injury Ave,[1]; 12.5 g ae/ha,5.0%
same,% Injury Range,[1]; 12.5 g ae/ha,0-20%
same,individuals with 20-40% injury,[1]; 12.5 g ae/ha,1
same,individuals with <20% injury,[1]; 12.5 g ae/ha,7
same,individuals with >40% injury,[1]; 12.5 g ae/ha,0
same,% Injury Ave,[1]; 50 g ae/ha,3.1%
same,% Injury Range,[1]; 50 g ae/ha,0-25%
same,individuals with 20-40% injury,[1]; 50 g ae/ha,1
same,individuals with <20% injury,[1]; 50 g ae/ha,7
same,individuals with >40% injury,[1]; 50 g ae/ha,0
same,% Injury Ave,[1]; 200 g ae/ha,40.0%
same,% Injury Range,[1]; 200 g ae/ha,0-100%
same,individuals with 20-40% injury,[1]; 200 g ae/ha,1
same,individuals with <20% injury,[1]; 200 g ae/ha,4
same,individuals with >40% injury,[1]; 200 g ae/ha,3
same,% Injury Ave,[1]; 800 g ae/ha,51.9%
same,% Injury Range,[1]; 800 g ae/ha,20-100%
same,individuals with 20-40% injury,[1]; 800 g ae/ha,5
same,individuals with <20% injury,[1]; 800 g ae/ha,0
same,individuals with >40% injury,[1]; 800 g ae/ha,3
same,% Injury Ave,[2]; 12.5 g ae/ha,38.1%
same,% Injury Range,[2]; 12.5 g ae/ha,20-95%
same,individuals with 20-40% injury,[2]; 12.5 g ae/ha,6
same,individuals with <20% injury,[2]; 12.5 g ae/ha,0
same,individuals with >40% injury,[2]; 12.5 g ae/ha,2
same,% Injury Ave,[2]; 50 g ae/ha,80.0%
same,% Injury Range,[2]; 50 g ae/ha,50-100%
same,individuals with 20-40% injury,[2]; 50 g ae/ha,0
same,individuals with <20% injury,[2]; 50 g ae/ha,0
same,individuals with >40% injury,[2]; 50 g ae/ha,8
same,% Injury Ave,[2]; 200 g ae/ha,98.3%
same,% Injury Range,[2]; 200 g ae/ha,95-100%
same,individuals with 20-40% injury,[2]; 200 g ae/ha,0
same,individuals with <20% injury,[2]; 200 g ae/ha,0
same,individuals with >40% injury,[2]; 200 g ae/ha,8
same,% Injury Ave,[2]; 800 g ae/ha,100.0%
same,% Injury Range,[2]; 800 g ae/ha,100%
same,individuals with 20-40% injury,[2]; 800 g ae/ha,0
same,individuals with <20% injury,[2]; 800 g ae/ha,0
same,individuals with >40% injury,[2]; 800 g ae/ha,8
same,activity of AAD1 (v1) E. coli extract on substrate,"[3]; 0.5 mM substrate, 4 μl extract",cleaved
same,"A510, AAD1","[3]; Table 3, substrate 1 mM, 1 μg purified AAD1 (v1) per 0.16 ml assay",0.566
same,"A510, AAD1 (10x)","[3]; Table 3, substrate 1 mM, 10 μg purified AAD1 (v1) per 0.16 ml assay",2.594
